The values below come from PMC4820820, “CETSA screening identifies known and novel thymidylate synthase inhibitors and slow intracellular activation of 5-fluorouracil” (Nature Communications, 2016).

Test [1] has as its target T1, TS (Homo sapiens, UniProt P04818). The test can be described thus: TS enzyme inhibition assay. The format is biochemical. The arrangement: His6 tag with TEV site (vector-encoded by pNIC28-Bsa4); made in house; host or cells: Rosetta BL21-DE3 Escherichia coli. The procedure: Enzymatic activity of recombinant human TS was measured spectrophotometrically at 340 nm by monitoring the absorbance change during the conversion of 5,10-methylenetetrahydrofolate to dihydrofolate using an Infinite M200 spectrometer (Tecan). Measurements were carried out at room temperature and in a buffer of 50 mM Tris at pH 7.5 and 150 mM NaCl. Initial velocities were measured with 250 nM of purified protein, 100 μM 5,10-methylenetetrahydrofolate and 100 μM dUMP in the presence of compounds using the same amount of DMSO as control. Initial rates and activity were analyzed with the software package Prism (GraphPad Software).
(§1) Decitabine at a concentration of 1 mM was incubated with 1 mg ml^−1 of recombinant DCK and 2.5 mM ATP in a buffer of 50 mM Tris at pH 7.5, 150 mM NaCl and 0.5 mM MgCl2 at room temperature for 60 min to generate the corresponding monophosphates. To probe for nucleotide deamination the samples were further treated with 1 mg ml^−1 of recombinant DCTD in the presence of 1 mM ATP and 10 μM ZnCl2 for 20 min at room temperature. After incubation, the samples were heated at 95 °C for 10 min and centrifuged for 10 min at the highest speed at 4 °C using a benchtop centrifuge. The supernatant was tested without dilution in thermal shift in vitro assays and the TS enzyme inhibition assay. The supernatants from samples without nucleoside were used as the treatment controls.

Test [2] concerns the target T1, TS. Kind of test: Thermal shift in vitro assay on recombinant protein. The format is binding. The arrangement: His6 tag with TEV site (vector-encoded by pNIC28-Bsa4); made in house; host or cells: Rosetta BL21-DE3 Escherichia coli. The procedure: The assay was performed on the iCycler iQ Real Time PCR Detection System (Bio-Rad), using the 96-well thin-wall PCR plate (Bio-Rad). The experiment was conducted in a buffer containing 20 mM HEPES at pH 7.5 and 150 mM NaCl. A total volume of 25 μl solution containing 0.2 mg ml^−1 protein, compounds and × 5 Sypro Orange dye (Invitrogen) diluted from 5,000 × stock was dispensed into the 96-well plate. The same amount of DMSO was added in the control wells. The plates were sealed with Microseal B adhesive sealer (Bio-Rad) and heated in iCycler from 25 to 80 °C (56 heating cycles in 28 min). Fluorescent filter used for Sypro Orange measurements was λexcitation=492 nm and λemission=610 nm. The calculation of the midpoint of the curves (Tm) was performed using the software package XLfit from IDBS within microsoft excel.
as §1

Test [3] addresses T2, human thymidylate synthase (TS) (Homo sapiens, UniProt P04818).
T2 construct: screening in live, non-engineered cells expressing thymidylate synthase; endogenous in cells; host or cells: K562 (human myelogenous leukemia) cells
Kind of test: CETSA primary screen / single-concentration retest, AlphaScreen, live K562 cells. It is filed as cell-based. The procedure:
Compounds were placed in columns 1–22. […] At the day of the experiment the plates were allowed to thaw for 30 min followed by a brief centrifugation step (1,000 × g for 1 min) prior to removal of the seal. The compounds were then diluted with 20 μl supplemented cell culture medium using a Multidrop Combi reagent dispenser (Thermo Scientific). Finally 5 μl of the diluted compounds were transferred to a 384 well hardshell PCR plate (HSR480, BIORAD) using a Bravo liquid handling platform equipped with a 384-well head (Agilent). […] The final concentration of DMSO in the assay was 0.5% in all samples.
The screen procedure started with the addition of 5 μl of a suspension of K562 cells at a density of 10 million cells per ml to all wells of a 384 well hardshell PCR plate (HSR480, BIORAD) using an electronic multichannel pipette (Biohit). […] For the time-course experiments the incubation times were altered to include also 10 min, 30 min and 6 h. […] After the incubation step the plates were transiently heated at 50 °C for 3 min followed by a controlled cooling to 20 °C for 1 min using a real-time PCR machine (LightCycler480 system, Roche). Plate handling was then as described above for the thermal aggregation experiments. The data were analyzed using microsoft excel and GraphPad Prism 6.
A calculation of the average and standard error of means for each set of controls also allowed an illustration of how these responses varied over the 32 screening plates. The Z′ factor[38] is commonly used as a measure of how well the assay separates between the controls and this was calculated as described based on the calculated averages and standard deviations of the controls on a per plate basis. For the Tagg shift and the […] experiments the data were analyzed in GraphPad Prism using the Boltzmann sigmoid equation and the saturation binding curve (rectangular hyperbola; binding isotherm) function, respectively. As already discussed[14] these methods make use of equilibrium models for data analysis although the methodology depends on the irreversible aggregation of denatured material. For this reason we refer to the observed responses as apparent and isothermal dose-response fingerprints and are careful with any quantitative interpretations, being well aware of their dependency on experimental conditions. Experiments are on-going to address the quantitative interpretation of CETSA data.
(Bead proximity is the source of the signal in Alpha formats.)

Read-outs that look alike come from different tables or passages of the source.

T1 sequence (P04818 whole entry): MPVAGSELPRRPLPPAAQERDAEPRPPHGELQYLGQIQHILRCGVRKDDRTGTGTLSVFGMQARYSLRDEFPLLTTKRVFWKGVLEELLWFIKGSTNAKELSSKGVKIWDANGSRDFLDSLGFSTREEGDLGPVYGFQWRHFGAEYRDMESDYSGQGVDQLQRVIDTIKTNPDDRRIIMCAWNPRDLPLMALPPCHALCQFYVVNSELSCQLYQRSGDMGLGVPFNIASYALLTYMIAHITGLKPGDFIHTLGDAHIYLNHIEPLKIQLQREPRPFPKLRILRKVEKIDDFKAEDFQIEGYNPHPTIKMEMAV
T2 sequence (P04818 2-313 limits assumed): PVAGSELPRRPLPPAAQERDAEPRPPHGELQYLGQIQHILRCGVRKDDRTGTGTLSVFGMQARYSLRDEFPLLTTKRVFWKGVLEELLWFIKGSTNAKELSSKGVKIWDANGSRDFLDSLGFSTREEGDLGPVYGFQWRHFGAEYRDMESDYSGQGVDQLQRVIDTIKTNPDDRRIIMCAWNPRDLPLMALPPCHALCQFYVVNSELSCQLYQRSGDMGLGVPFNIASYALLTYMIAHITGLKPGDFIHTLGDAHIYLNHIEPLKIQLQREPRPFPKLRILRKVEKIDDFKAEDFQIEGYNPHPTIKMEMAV

In the case of `Cc1cc(O)nc2sc(C(=O)c3ccccc3)c(N)c12` [CBK115334, 3-amino-2-benzoyl-4-methylthieno(2,3-b)pyridin-6-ol], the inhibition at 10 µM on TS [1] (10 μM compound, read-out: inhibition of TS enzymatic activity) turned out to be 60%. At TS [1] (100 μM compound), the “inhibition of TS enzymatic activity” value is “near complete inhibition”. For the same molecule, the ΔTm at 25 µM on TS [2] (25 μM compound, 500 μM dUMP, read-out: thermal shift of isolated recombinant human TS) amounted to 2.6 °C. For the same molecule, the ΔTm at 100 µM at TS [2] (100 μM compound, 500 μM dUMP, read-out: thermal shift of isolated recombinant human TS) was found to be 5.2 °C. In addition, in test [3] (K562, 2 h; read-out: % stabilization in screen), the % stabilization in screen at 50 µM was determined as 20%.
Turning to `Nc1ncn([C@H]2C[C@H](O)[C@@H](CO)O2)c(=O)n1` [decitabine, 5-Aza-deoxycytidine], the “inhibition in TS enzymatic assay” value was “minor inhibition” at TS [1] (decitabine sample after DCK treatment); “near full inhibition” against TS [1] (decitabine sample after treatment with both DCK and DCTD). In addition, the “stabilization of recombinant TS” value on TS [2] (1 mM decitabine after treatment with recombinant DCK) is “only a marginal stabilization”. Moreover, the “stabilization of recombinant TS in thermal shift assay” value at TS [2] (nucleoside without enzyme treatment) is reported as “did not stabilize”. Besides, the ΔTm at 1000 µM on TS [2] (read-out: thermal shift of recombinant TS) was around 10 °C. For the same molecule, the % stabilization in screen at 50 µM in test [3] (K562, 2 h, read-out: % stabilization in screen) worked out at 91%.

As a reminder, the inhibition is the relative decrease from the control value, in per cent.
